Test results: patent US20210267939A1, “COMPOSITIONS AND METHODS FOR TREATING NAFLD/NASH AND RELATED DISEASE PHENOTYPES” (priority 2018, published 2021)
“Also recorded” adds a separate entry of the source.

Tested on: Zucker fatty rats
Experiment: Circulating BCAA and BCKA in treated Zucker fatty rats
Assay type: in vivo
Settings: ZFR, BT2 20 mg/kg i.p. daily for one week, vs vehicle
Protocol: Individually housed, male 12 week-old Zucker fatty rats (ZFR, Charles River Laboratories) maintained on a custom control low fat (LF) diet (A11072001, Research Diets) were used for the BDK inhibition and PPM1K overexpression studies. For the BDK inhibition study, ZFR were administered the small molecule BDK inhibitor 3,6-dichlorobenzo[b]thiophene-2-carboxylic acid (BT2, Sigma) daily at a dose of 20 mg/kg dissolved in 200 ul of sterile dimethylsulfoxide by i.p. injection for 7 days. The control group was administered an equal volume of vehicle each day. […]
Metabolite profiling: Amino acids were measured in plasma and liver samples, and acylcarnitines in liver samples. […]
Plasma concentrations of the alpha-keto acids of leucine (α-keto-isocaproate, KIC), isoleucine (α-keto-β-methylvalerate, KMV) and valine (α-keto-isovalerate, KIV) were measured by LC-MS as previously described (Glynn et al., 2015; White et al., 2016). Other plasma analytes were measured on a Beckman DxC600 autoanalyzer, using reagents for lactate, total cholesterol, and triglycerides from Beckman, and non-esterified fatty acids (NEFA) and ketones (total and 3-hydroxybutyrate) from Wako (Richmond, Va.). Glycerol was measured using reagents from TG-B by Roche Diagnostics (Indianapolis, Ind.). Liver triglycerides were quantified using the triglyceride quantification kit from Abcam. […]

For O=C(O)c1sc2cc(Cl)ccc2c1Cl [BT2, 3,6-dichlorobenzo[b]thiophene-2-carboxylic acid], the “circulating BCAA levels” value was “lowered” and the “circulating branched-chain α-ketoacids (BCKA)” value (20 mg/kg) was “more dramatic lowering; also recorded: potently lowers”.
